The values that follow come from patent US20100282247A1, “TREATMENT OF PULMONARY DISORDERS WITH AEROSOLIZED MEDICAMENTS SUCH AS VANCOMYCIN” (Novartis AG, priority 2007, published 2010).

Structures are written as SMILES.

The conditions of series [1]: in vivo. From the text:
One or more embodiments of the invention comprise systems and method for delivering relatively high concentrations of medicament without undue precipitation of the medicament in the delivery system. The on-vent adapter with the pattern of aerosol generation is designed to allow up to 90% of aerosol enter the artificial airway and allow 45-80% of dose to reach aerosol to the lungs. Hand Held adapter delivers inhaled mass of 75-90% with 40-55% of dose reaching the lungs as aerosol (based on AMIK phase II Scintigraphy.) Initially in vitro testing was showing precipitation of Vancomycin in powder form on the inspiratory filter.

In another series the test system is S. aureus. The note with it: lowered by CLSI; cited from earlier work.
The conditions of series [2]: aerosolized versus systemic vancomycin, n=10, high suspicion for MRSA respiratory infection; cited from earlier work.
The conditions of series [3]: parenterally administered; cited from earlier work.
For series [4], the system named is vancomycin susceptable S. aureas. The note with it: estimated; cited from earlier work.
Series [5] relates to Gram-positive, pneumonia-causing bacteria. As to the kind of experiment: Reference MIC in tracheal aspirates (TA). It is filed as cell-based, Staph species. The note with it: locally in TA. The protocol:
The dose-response to aerosolized vancomycin, administered in accordance with one or more embodiments of devices, apparatus and/or methods of the present invention was evaluated, as was the ability to deliver a predefined target multiple of an MIC for Gram-positive bacteria causing pneumonia, including, Staph species, in the tracheal aspirates (TA). […] Thus the desired multiple is 128 μg/mL.

The test system of series [6] is vancomycin intermediate S. aureas. The note with it: estimated; cited from earlier work.
A further series deals with gram-positive bacteria. The settings on record: P<=0.05, cited from earlier work.
In series [7] the test system is vancomycin resistant S. aureas. The note with it: estimated; printed with "or more"; cited from earlier work.

As for `NCC[C@H](O)C(=O)N[C@@H]1C[C@H](N)[C@@H](O[C@H]2O[C@H](CN)[C@@H](O)[C@H](O)[C@H]2O)[C@H](O)[C@H]1O[C@H]1O[C@H](CO)[C@@H](O)[C@H](N)[C@H]1O` [AMIK], in [1], the “dose reaching the lungs as aerosol” value is 40-55% and the inhaled mass is 75-90%.
As for `CN[C@H](CC(C)C)C(=O)N[C@H]1C(=O)N[C@@H](CC(N)=O)C(=O)N[C@H]2C(=O)N[C@H]3C(=O)N[C@H](C(=O)N[C@H](C(=O)O)c4cc(O)cc(O)c4-c4cc3ccc4O)[C@H](O)c3ccc(c(Cl)c3)Oc3cc2cc(c3O[C@@H]2O[C@H](CO)[C@@H](O)[C@H](O)[C@H]2O[C@H]2C[C@](C)(N)[C@H](O)[C@H](C)O2)Oc2ccc(cc2Cl)[C@H]1O` [vancomycin], in the series with S. aureus, the vancomycin breakpoint was 2 µg/mL. Besides, the sputum vancomycin concentrations entry in [2] is given as “significantly increases”. Moreover, the “levels in lung epithelial lining fluid as share of those seen in serum” value in [3] is given as roughly 14%. In addition, the “reference MIC” value in series [4] was 2 to 4 µg/mL. Besides, the “reference MIC value” in series [5] was found to be 32 µg/mL. Besides, the “reference MIC” value in series [6] is 8 to 16 µg/mL. For the same compound, the “CDC-NNIS diagnostic criteria for ventilator-associated pneumonia (VAP)” value in the series with gram-positive bacteria (aerosolized vancomycin (n=14) and/or gentamicin-sulfate, placebo 75.0% to 78.6%) is given as 35.7% to 73.6%. In the series with gram-positive bacteria (versus placebo), the “WBC at Day 14” value is reported as “lower”, the bacterial resistance result was “reduced”, the “clinical pulmonary infection score CPIS” value is given as “reduced” and the “use of systemic antibiotics” value is listed as “reduced”. The ventilator weaning result in the series with gram-positive bacteria (versus placebo) is “increased”. In addition, the “reference MIC” value in series [7] was 16 to 32 µg/mL.
